Where “and” joins values, the source holds several entries; their conditions need not be identical. Equal values may be shown once. Where a name gives a salt, the structure may show the parent alone.
Biological target: T1, Human ATX protein (Homo sapiens, UniProt Q13822)
T1 construct: made in house
Test: ATX biochemical assay (FRET, FS-3 substrate)
Settings: FRET assay, FS-3 2 μM, ATX 1.0 μg/mL, 30 minutes preincubation, 2 hours reaction at room temperature; read-out: IC50
Summary of the method: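 In-house human ATX (1.0 μg/mL final) was preincubated with compound for 30 min at room temperature in Tris buffer pH 7.4 with 1 mg/mL fatty acid free-BSA. FS-3 substrate (2 μM final) was then hydrolysed for 2 hours at room temperature, protected from light, and read as fluorescence at ex 485/em 538 nm.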

| IC50 | SMILES |
| --- | --- |
| ≤ 100 nM | O=C(O)C1CCCN(CC(=O)N2CCc3c(C(F)(F)F)nn(Cc4ccc(F)cc4)c3C2)C1 (stereo not shown) [Example 13-7, 1-(2-(1-(4-Fluorobenzyl)-3-(trifluoromethyl)-4,5-dihydro-1H-pyrazolo[3,4-c]pyridin-6(7H)-yl)-2-oxoethyl)piperidine-3-carboxylic acid] |
| ≤ 100 nM | CC(C(=O)N1CCc2c(C(F)(F)F)nn(Cc3ccc(Cl)cc3F)c2C1)C1CCC(C(=O)O)CC1 (stereo not shown) [Example 6-4, 4-(1-(1-(4-Chloro-2-fluorobenzyl)-3-(trifluoromethyl)-4,5-dihydro-1H-pyrazolo[3,4-c]pyridin-6(7H)-yl)-1-oxopropan-2-yl)cyclohexanecarboxylic acid] |
| ≤ 100 nM | CC(C)N1CCCC(CC(=O)N2CCc3c(C(F)(F)F)nn(Cc4ccc(F)cc4)c3C2)C1 (stereo not shown) [Example 11-4, 1-(1-(4-Fluorobenzyl)-3-(trifluoromethyl)-4,5-dihydro-1H-pyrazolo[3,4-c]pyridin-6(7H)-yl)-2-(1-isopropylpiperidin-3-yl)ethanone formate] |
| ≤ 100 nM | O=C(O)CC1CCN(CC(=O)N2CCc3c(C(F)(F)F)nn(Cc4ccc(F)cc4)c3C2)CC1 [Example 13-15, 2-(1-(2-(1-(4-Fluorobenzyl)-3-(trifluoromethyl)-4,5-dihydro-1H-pyrazolo[3,4-c]pyridin-6(7H)-yl)-2-oxoethyl)piperidin-4-yl)acetic acid TFA salt] |
| ≤ 100 nM | O=C(CC1CC(N2CCC2)C1)N1CCc2c(C(F)(F)F)nn(Cc3ccc(F)cc3)c2C1 (stereo not shown) [Example 22-1, 2-(3-(Azetidin-1-yl)cyclobutyl)-1-(1-(4-fluorobenzyl)-3-(trifluoromethyl)-4,5-dihydro-1H-pyrazolo[3,4-c]pyridin-6(7H)-yl)ethanone TFA salt] |
| ≤ 100 nM | O=C(CC1CC(N2CCCC2)C1)N1CCc2c(C(F)(F)F)nn(Cc3ccc(F)cc3)c2C1 (stereo not shown) [Example 22-3, 1-(1-(4-Fluorobenzyl)-3-(trifluoromethyl)-4,5-dihydro-1H-pyrazolo[3,4-c]pyridin-6(7H)-yl)-2-(3-(pyrrolidin-1-yl)cyclobutyl)ethanone TFA salt] |
| ≤ 100 nM | CC(=O)N1CCCC(CC(=O)N2CCc3c(C(F)(F)F)nn(Cc4ccc(F)cc4)c3C2)C1 (stereo not shown) [Example 17-1] |
| ≤ 100 nM | CC(C)(C)OC(=O)N1CCC(CC(=O)N2CCc3c(C(F)(F)F)nn(Cc4ccc(Cl)cc4F)c3C2)CC1 [Example 8-2, tert-Butyl 4-(2-(1-(4-chloro-2-fluorobenzyl)-3-(trifluoromethyl)-4,5-dihydro-1H-pyrazolo[3,4-c]pyridin-6(7H)-yl)-2-oxoethyl)piperidine-1-carboxylate] |
| ≤ 100 nM | CC1(C)C(NCC(=O)N2CCc3c(C(F)(F)F)nn(Cc4ccc(F)cc4)c3C2)CC1C(=O)O (stereo not shown) [Example 13-14, 3-((2-(1-(4-Fluorobenzyl)-3-(trifluoromethyl)-4,5-dihydro-1H-pyrazolo[3,4-c]pyridin-6(7H)-yl)-2-oxoethyl)amino)-2,2-dimethylcyclobutanecarboxylic acid TFA salt] |
| ≤ 100 nM | N#C[C@H]1CC[C@H](CC(=O)N2CCc3c(C(F)(F)F)nn(Cc4ccc(F)cc4)c3C2)CC1 [Example 21-2, trans-4-(2-(1-(4-Fluorobenzyl)-3-(trifluoromethyl)-4,5-dihydro-1H-pyrazolo[3,4-c]pyridin-6(7H)-yl)-2-oxoethyl)cyclohexanecarbonitrile] |
| ≤ 100 nM | CC(C(=O)N1CCc2c(C(F)(F)F)nn(Cc3ccc(Cl)cc3F)c2C1)N1CCC(C(=O)O)CC1 (stereo not shown) [Example 13-8, 1-(1-(1-(4-Chloro-2-fluorobenzyl)-3-(trifluoromethyl)-4,5-dihydro-1H-pyrazolo[3,4-c]pyridin-6(7H)-yl)-1-oxopropan-2-yl)piperidine-4-carboxylic acid] |
| ≤ 100 nM | O=C(O)C1CCCN(CC(=O)N2CCc3c(C(F)(F)F)nn(Cc4ccc(Cl)cc4F)c3C2)CC1 (stereo not shown) [Example 13-20, 1-(2-(1-(4-Chloro-2-fluorobenzyl)-3-(trifluoromethyl)-4,5-dihydro-1H-pyrazolo[3,4-c]pyridin-6(7H)-yl)-2-oxoethyl)azepane-4-carboxylic acid TFA salt] |
| ≤ 100 nM | COC(=O)c1ccc(CC(=O)N2CCc3c(C(F)(F)F)nn(Cc4ccc(Cl)cc4F)c3C2)cc1 [Example 1-11, Methyl 4-(2-(1-(4-chloro-2-fluorobenzyl)-3-(trifluoromethyl)-4,5-dihydro-1H-pyrazolo[3,4-c]pyridin-6(7H)-yl)-2-oxoethyl)benzoate] |
| ≤ 100 nM | O=C(O)[C@@H]1CC(CC(=O)N2CCc3c(C(F)(F)F)nn(Cc4ccc(Cl)cc4F)c3C2)CN1 (stereo partly shown) [Example 9-8, (2s)-4-(2-(1-(4-Chloro-2-fluorobenzyl)-3-(trifluoromethyl)-4,5-dihydro-1H-pyrazolo[3,4-c]pyridin-6(7H)-yl)-2-oxoethyl)pyrrolidine-2-carboxylic acid TFA salt] |
| ≤ 100 nM | O=C(O)C1CCN(CC(=O)N2CCc3c(C(F)(F)F)nn(Cc4ccc(F)cc4)c3C2)CC1 [Example 13-1, 1-(2-(1-(4-Fluorobenzyl)-3-(trifluoromethyl)-4,5-dihydro-1H-pyrazolo[3,4-c]pyridin-6(7H)-yl)-2-oxoethyl)piperidine-4-carboxylic acid] |
| 100 to 250 nM | NC12CCC(C(=O)N3CCc4c(C(F)(F)F)nn(Cc5ccc(F)cc5)c4C3)(CC1)CC2 [Example 9-9, (4-Aminobicyclo[2.2.2]octan-1-yl)(1-(4-fluorobenzyl)-3-(trifluoromethyl)-4,5-dihydro-1H-pyrazolo[3,4-c]pyridin-6(7H)-yl)methanone TFA salt] |
| ≤ 100 nM | O=C(C[C@H]1CC[C@H](C(=O)O)CC1)N1CCc2c(C(F)(F)F)nn(Cc3cc(F)cc(Cl)c3)c2C1 [Example 5-3, trans-4-(2-(1-(3-chloro-5-fluorobenzyl)-3-(trifluoromethyl)-4,5-dihydro-1H-pyrazolo[3,4-c]pyridin-6(7H)-yl)-2-oxoethyl)cyclohexanecarboxylic acid] |
| ≤ 100 nM | O=C(C[C@H]1CC[C@H](C(=O)O)CC1)N1CCc2c(-c3cccnc3)nn(Cc3ccc(F)cc3)c2C1 [Example 5-40, trans-4-(2-(1-(4-Fluorobenzyl)-3-(pyridin-3-yl)-4,5-dihydro-1H-pyrazolo[3,4-c]pyridin-6(7H)-yl)-2-oxoethyl)cyclohexanecarboxylic acid] |
| ≤ 100 nM | CCOC(=O)C1CCC(CC(=O)N2CCc3c(C(F)(F)F)nn(Cc4ccc(F)cc4)c3C2)CC1 (stereo not shown) [Example 1-1, Ethyl 4-(2-(1-(4-fluorobenzyl)-3-(trifluoromethyl)-4,5-dihydro-1H-pyrazolo[3,4-c]pyridin-6 (7H)-yl)-2-oxoethyl)cyclohexanecarboxylate] |
| ≤ 100 nM | O=C(CC1C2CC3CC1CC(C(=O)O)(C3)C2)N1CCc2c(C(F)(F)F)nn(Cc3ccc(Cl)cc3F)c2C1 (stereo not shown) [Example 5-54, 4-(2-(1-(4-Chloro-2-fluorobenzyl)-3-(trifluoromethyl)-4,5-dihydro-1H-pyrazolo[3,4-c]pyridin-6(7H)-yl)-2-oxoethyl) adamantancarboxylic acid] |
| ≤ 100 nM | O=C(Cc1ccc(F)cc1)N1CCc2c(C(F)(F)F)nn(Cc3ccc(Cl)cc3F)c2C1 [Example 1-12, 1-(1-(4-Chloro-2-fluorobenzyl)-3-(trifluoromethyl)-4,5-dihydro-1H-pyrazolo[3,4-c]pyridin-6(7H)-yl)-2-(4-fluorophenyl)ethanone] |
| 100 to 250 nM | O=C(C[C@H]1CC[C@H](C(=O)O)CC1)N1CCc2c(C(F)(F)F)nn(Cc3ccccn3)c2C1 [Example 5-23, trans-4-(2-Oxo-2-(1-(pyridin-2-ylmethyl)-3-(trifluoromethyl)-4,5-dihydro-1H-pyrazolo[3,4-c]pyridin-6(7H)-yl)ethyl)cyclohexanecarboxylic acid] |
| > 500 nM and ≤ 10000 nM | CCOC(=O)[C@H]1CC[C@H](CC(=O)N2CCc3c(C(N)=O)nn(Cc4ccc(F)cc4)c3C2)CC1 [Example 1-42, trans-Ethyl 4-(2-(3-carbamoyl-1-(4-fluorobenzyl)-4,5-dihydro-1H-pyrazolo[3,4-c]pyridin-6(7H)-yl)-2-oxoethyl)cyclohexanecarboxylate] |
| 250 to 500 nM | CNC12CCC(C(=O)N3CCc4c(C(F)(F)F)nn(Cc5ccc(F)cc5)c4C3)(CC1)CC2 [Example 9-22, (1-(4-Fluorobenzyl)-3-(trifluoromethyl)-4,5-dihydro-1H-pyrazolo[3,4-c]pyridin-6(7H)-yl)(4-(methylamino)bicyclo[2.2.2]octan-1-yl)methanone TFA salt] |
| > 500 nM and ≤ 10000 nM | O=C(C[C@H]1CC[C@H](C(=O)O)CC1)N1CCc2c(C(F)(F)F)nn(Cc3cncnc3)c2C1 [Example 5-29, trans-4-(2-Oxo-2-(1-(pyrimidin-5-ylmethyl)-3-(trifluoromethyl)-4,5-dihydro-1H-pyrazolo[3,4-c]pyridin-6(7H)-yl)ethyl)cyclohexanecarboxylic acid] |
| ≤ 100 nM | O=C(O[C@H]1CC[C@@H](C(=O)O)CC1)N1CCc2c(C(F)(F)F)nn(Cc3ccc(Cl)cc3F)c2C1 [Example 7-9, cis-4-((1-(4-Chloro-2-fluorobenzyl)-3-(trifluoromethyl)-4,5,6,7-tetrahydro-1H-pyrazolo[3,4-c]pyridine-6-carbonyl)oxy)cyclohexanecarboxylic acid] |
| ≤ 100 nM | O=C(C[C@H]1CC[C@@H](C(=O)O)CC1)N1CCc2c(C(F)(F)F)nn(Cc3ccc(Cl)cc3F)c2C1 [Example 5-2, cis-4-(2-(1-(4-Chloro-2-fluorobenzyl)-3-(trifluoromethyl)-4,5-dihydro-1H-pyrazolo[3,4-c]pyridin-6(7H)-yl)-2-oxoethyl)cyclohexanecarboxylic acid] |
| ≤ 100 nM | O=C(O)C1CC2CCC(C1)C2CC(=O)N1CCc2c(C(F)(F)F)nn(Cc3ccc(Cl)cc3F)c2C1 (mixture of isomers) [Example 6-10, 8-(2-(1-(4-Chloro-2-fluorobenzyl)-3-(trifluoromethyl)-4,5-dihydro-1H-pyrazolo[3,4-c]pyridin-6(7H)-yl)-2-oxoethyl)bicyclo[3.2.1]octane-3-carboxylic acid] |

— patent US10144732B2 (BIOGEN MA INC., priority 2014, dated 2018)
